Series [1] deals with T1, urease (Canavalia ensiformis, UniProt P07374). Put plainly: biochemical. How it is done:
The indophenol method as outlined by Weatherburn was employed to assess urease activity by measuring the produced ammonia. Briefly, incubation of the reaction mixture was carried out at 37 degrees Celsius for half an hour on the microplate reader with 96-well plates. The operated mixture consisted of 20 microliters of the enzyme (from 5 units per ml of stock solution), 20 µL of the tested compound (5 mg/mL stock solution), and 50 microliters of the buffer solution. Thiourea was employed as a reference inhibitor, and percentage inhibition was calculated by […].

Series [2] addresses T1, urease. Particulars: cited from earlier work.
Where [3] appears, read: ref [36], read-out: IC50 (urease).

This passage reports IC50 and melting point results from PMC11510561, “Synthesis, Urease Inhibition, Molecular Docking, and Optical Analysis of a Symmetrical Schiff Base and Its Selected Metal Complexes” (Molecules, 2024).

Each structure is given as a SMILES string. Where two headings read alike, the source gives them in different places.

T1 sequence (P07374 whole entry, looked up): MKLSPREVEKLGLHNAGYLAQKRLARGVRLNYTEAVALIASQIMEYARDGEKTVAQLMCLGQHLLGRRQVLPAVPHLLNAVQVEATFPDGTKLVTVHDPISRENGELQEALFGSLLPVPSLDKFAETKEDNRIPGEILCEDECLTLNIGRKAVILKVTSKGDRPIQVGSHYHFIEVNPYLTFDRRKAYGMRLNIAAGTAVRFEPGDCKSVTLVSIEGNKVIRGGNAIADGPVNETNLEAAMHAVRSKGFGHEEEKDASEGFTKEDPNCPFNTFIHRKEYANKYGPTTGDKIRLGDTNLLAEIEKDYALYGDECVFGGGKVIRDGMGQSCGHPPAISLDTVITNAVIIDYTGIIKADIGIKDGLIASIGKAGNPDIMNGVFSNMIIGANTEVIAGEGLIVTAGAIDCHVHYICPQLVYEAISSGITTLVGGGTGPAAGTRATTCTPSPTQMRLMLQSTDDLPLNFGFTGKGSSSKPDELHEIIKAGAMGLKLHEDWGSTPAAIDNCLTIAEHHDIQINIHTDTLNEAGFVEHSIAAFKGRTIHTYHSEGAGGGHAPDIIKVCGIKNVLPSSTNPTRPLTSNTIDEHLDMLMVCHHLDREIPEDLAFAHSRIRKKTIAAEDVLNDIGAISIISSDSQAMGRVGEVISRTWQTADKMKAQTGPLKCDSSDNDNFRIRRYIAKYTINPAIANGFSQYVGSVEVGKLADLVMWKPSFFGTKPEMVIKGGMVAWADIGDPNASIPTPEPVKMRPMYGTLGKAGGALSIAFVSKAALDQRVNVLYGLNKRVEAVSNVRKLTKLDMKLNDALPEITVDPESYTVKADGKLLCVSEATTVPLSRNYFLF

Regarding `COc1ccc(-c2n[nH]c(=O)n2/N=C/c2cccc(/C=N/n3c(-c4ccc(OC)cc4)n[nH]c3=O)n2)cc1` [Compound 6, 4,4′-((1E,1′E)-(Pyridine-2,6-diylbis(methanylylidene))bis(azanylylidene))bis(3-(4-methoxyphenyl)-1H-1,2,4-triazol-5(4H)-one)], the melting point (usually the temperature of the solid-liquid transition) lay in the range of 181 to 183 °C. It took 21.8 ± 1.88 µM to reach half-maximal inhibition on urease [1] (IC50).
Regarding `NC(N)=S` [Thiourea], the IC50 (as a rule, the point on the concentration scale where inhibition reaches its midpoint) is 20.7 µM on urease [1] (indophenol method, 37 degrees Celsius, half an hour, thiourea as reference, read-out: Urease Inhibition IC50); 22 µM at urease [2] (ref [35], read-out: IC50 (urease)); 23 µM at urease [2] (setting [3]).
As to `Nn1c(-c2ccncc2)n[nH]c1=S` [Compound C00005], the IC50 at urease [2] (read-out: IC50 (urease), ref [39]) is greater than 100 µM.
For the molecule `Nn1c(SCC(=O)O)nnc1-c1ccncc1` [HL], on urease [2] (read-out: IC50 (urease), ref [37]), the IC50 is 15.1 ± 2.22 µM.
For the molecule `Nn1c(SCC(=O)O)nnc1-c1ccccn1` [Compound H2L], on urease [2] (read-out: IC50 (urease), ref [38]), the IC50 is 14.7 ± 1.4 µM.
Regarding `CC(=O)NO` [Acetohydroxamic acid], the IC50 at urease [2] (ref [37], read-out: IC50 (urease)) is 7.9 µM; on urease [2] (unit inferred, ref [39], read-out: IC50 (urease), reference drug) it was 32.1 µM.
In the case of `NC(=O)NO` [Hydroxyurea], on urease [2] (setting [3]), the IC50 is 100 µM.
